What was measured:
[1] = test system: HuTu 80 (human duodenal adenocarcinoma); experiment: MTT cytotoxicity, HuTu 80; assay type: cell-based
[2] = test system: M-HeLa (human cervix epitheloid carcinoma); experiment: MTT cytotoxicity, M-HeLa; assay type: cell-based
[3] = test system: MCF-7 (human breast adenocarcinoma); experiment: MTT cytotoxicity, MCF-7; assay type: cell-based
[4] = test system: A549 (human lung carcinoma); experiment: MTT cytotoxicity, A549; assay type: cell-based
[5] = test system: T98G glioblastoma cell line; experiment: MTT cytotoxicity, T98G; assay type: cell-based, human
[6] = test system: WI38 (diploid human embryo lung); experiment: MTT cytotoxicity, normal cells WI38; assay type: cell-based; details: MTT; mean ± SD, triplicate; read-out: WI38 IC50 (normal cell line)
HuTu-80 cells [7] = experiment: Induction of apoptosis, annexin V/propidium iodide flow cytometry; assay type: cell-based, human; details: IC50/2, 48-h incubation
Experimental: Apoptosis is one of the most significant mechanisms used for screening new anti-cancer agents. The apoptosis-inducing effect was carried out on lead compounds 3a, b, k, j and 4c showing high selectivity against HuTu-80 cells. The studies were carried out by flow cytometry at concentrations IC50/2 and IC50 (Figure 4). […] The percentage of apoptotic cells in early and late phases was slightly changed with increase compound concentration up to IC50.
HuTu 80 cells at 1 × 10^6 cells/well in a final volume of 2 mL were seeded into six-well plates. After 48 h of incubation, various concentrations of compounds 3a,b and 3k were added to wells.
The cells were harvested at 2000 rpm for 5 min and, then, washed twice with ice-cold PBS, followed by resuspension in binding buffer. Next, the samples were incubated with 5 μL of annexin V-Alexa Fluor 647 (Sigma–Aldrich, St. Louis, MO, USA) and 5 μL of propidium iodide for 15 min at room temperature in the dark. Finally, the cells were analyzed by flow cytometry (Guava easy Cyte, MERCK, Rahway, NJ, USA) within 1 h. The experiments were repeated three times.

HuTu-80 cells [8] = experiment: Mitochondrial membrane potential, JC-10 flow cytometry; assay type: cell-based, human; details: for % cells with J-aggregate (red, high membrane potential) / % cells with J-monomer (green, decreased membrane potential): JC-10
Text: Apoptosis induction by 3a, b, k, j and 4c through the mitochondrial pathway and HuTu-80 cell line was studied by flow cytometry using the fluorescent dye JC-10 from the Mitochondria Membrane Potential Kit. JC-10 accumulated in the mitochondrial matrix and formed aggregates (J-aggregate) with red fluorescence in normal cells with a high mitochondrial membrane potential. The membrane potential decreased in apoptotic cells. JC-10 started to diffuse out from the mitochondria and converts to the monomeric form (J-monomer) and emits green fluorescence. This is recorded with a flow cytometer. […] The process became more pronounced with an increase of 3a, b, 3k, j and 4c concentrations up to IC50 (Figure 5 and Figure 6).
Cells were harvested at 2000 rpm for 5 min and then washed twice with ice-cold PBS, followed by resuspension in JC-10 (10 µg/mL) and incubation at 37 °C for 10 min. After the cells were rinsed three times and suspended in PBS, the JC-10 fluorescence was observed by flow cytometry (Guava easy Cyte, MERCK, NJ, USA).

HuTu-80 cells [9] = experiment: Intracellular ROS production, CellROX Deep Red flow cytometry; assay type: cell-based, human; details: for CellROX Deep Red fluorescence intensity (ROS production): control 600
Text: Increasing the production of reactive oxygen species (ROS) by compounds characterizes the mitochondrial apoptotic pathway. Mitochondria are a potential source and target of ROS. ROS lead to disruption of mitochondrial functions and, as a consequence, to irreversible cell damage. In this regard, the effect of test compounds in HuTu-80 cells on ROS production, using flow cytometry analysis and CellROX® Deep Red flow cytometry kit was investigated. Data presented in Figure 7 show a significant increase in CellROX® Deep Red fluorescence intensity. This indicates an increase in ROS production in the presence of the tested compounds.
ROS generation was investigated using flow cytometry assay and CellROX® Deep Red flow cytometry kit. For this HuTu 80 cells were harvested at 2000 rpm for 5 min and then washed twice with ice-cold PBS, followed by resuspension in 0.1 mL of medium without FBS, to which was added 0.2 μL of Cell ROX® Deep Red and incubated at 37 °C for 30 min After three times washing the cells and suspending them in PBS, the production of ROS in the cells was immediately monitored using flow cytometer Guava easy Cyte, MERCK, NJ, USA).

human cancer cell lines = experiment: MTT cytotoxicity, summary statements over several cell lines; assay type: cell-based; details: Homo sapiens, HuTu80; lines other than HuTu 80 and PC3; read-out: IC50 concentration values against other human cancer lines
[10] = test system: PC3 (human prostate adenocarcinoma); experiment: MTT cytotoxicity, PC3
[11] = In vitro rhodamine B release, dialysis bag diffusion method; assay type: physicochemical; details: aqueous solution without nanoparticles; phosphate buffer 0.025 M, pH 7.4, 37 °C
Experimental: The monitoring of rhodamine B release from liposomes was performed using the dialysis bag diffusion method. Dialysis bags retain liposomes and allow the released rhodamine B to diffuse into the medium. The bags were soaked in Milli-Q water for 12 h before use. Then, 0.4 mL of liposomes were poured into the dialysis bag. The two bag ends were sealed with clamps. The bags were then placed in a vessel containing 100 mL of 0.025 M sodium phosphate buffer pH 7.4, the receiving phase. The vessel was placed in a thermostatic shaker (New Brunswick, NJ, USA) at 37 °C, under a stirring rate of 150 rpm. At predetermined time intervals, 0.5 mL of samples were withdrawn, and their absorbance at 554 nm was measured using Perkin Elmer λ35 (Perkin Elmer Instruments, Norwalk, CT, USA). All samples were analyzed in triplicate. The extinction coefficient of rhodamine B is 106,089 M^−1 cm^−1 at pH = 7.4.

[12] = IC50 normal cells (WI38) / IC50 cancer cells, ns = no selectivity

For `C=CCOCC(O)C[P+](c1ccccc1)(c1ccccc1)c1ccccc1.[I-]` (centres unmarked) [4c, (3-(Allyloxy)-2-hydroxypropyl)triphenylphosphonium iodide], the “SI HuTu 80” value [1, 12] was 12.3, the IC50 ([1]; MTT, mean ± SD, triplicate) was 300 ± 20 nM and the “anti-cancer activity against the HuTu 80 cell line relative to doxorubicin” value ([1]; words) was “comparable to doxorubicin activity”. The “SI M-HeLa” value [2, 12] was 3.4, the IC50 ([2]; MTT, mean ± SD, triplicate) was 1100 ± 90 nM and the “SI MCF-7” value [3, 12] was 1.4. For the same molecule, the IC50 ([3]; MTT, mean ± SD, triplicate) was 2700 ± 200 nM, the “SI A549” value [4, 12] was 1.4 and the IC50 ([4]; MTT, mean ± SD, triplicate) was 2600 ± 200 nM. For the same molecule, the “SI T98G” value [5, 12] was 1.8, the IC50 ([5]; MTT, mean ± SD, triplicate) was 2000 ± 100 nM and the IC50 [6] was 3700 ± 300 nM. The “apoptosis induction” value (HuTu-80 cells [7]) was “actively induce apoptosis”, the “% cells with J-aggregate (red, high membrane potential)” value (HuTu-80 cells [8]; IC50, 48 h) was 51.1% and the “% cells with J-monomer (green, decreased membrane potential)” value (HuTu-80 cells [8]; IC50, 48 h) was 46.9%. For the same molecule, the “% cells with J-aggregate (red, high membrane potential)” value (HuTu-80 cells [8]; IC50/2, 48 h) was 88.5%, the “% cells with J-monomer (green, decreased membrane potential)” value (HuTu-80 cells [8]; IC50/2, 48 h) was 11.3% and the “effect on mitochondrial membrane potential” value (HuTu-80 cells [8]; more pronounced with increase of concentration up to IC50) was “decrease the mitochondrial membrane potential”. For the same molecule, the “CellROX Deep Red fluorescence intensity (ROS production)” value (HuTu-80 cells [9]; IC50, 48 h) was 4300, the “CellROX Deep Red fluorescence intensity (ROS production)” value (HuTu-80 cells [9]; IC50/2, 48 h) was 3200 and the “ROS generation” value (HuTu-80 cells [9]; compared to 3a and 3b and control (untreated cells)) was “most active to generate ROS”. The IC50 (human cancer cell lines) was 1100 to 3700 nM, the “SI PC3” value [10, 12] was 5.3 and the IC50 ([10]; read-out: IC50 PC3, MTT, mean ± SD, triplicate) was 700 ± 60 nM. For the same molecule, the “cytotoxic effect against the PC3 line relative to doxorubicin” value ([10]; words) was “two times higher than doxorubicin”.
In the case of `CCN(CC)c1ccc2c(-c3ccccc3C(=O)O)c3ccc(=[N+](CC)CC)cc-3oc2c1` [Rhodamine B], the “time of release of 50% Rhodamine B” value [11] is reported as no more than 20 min.

— paper PMC8588467, “Rational Design 2-Hydroxypropylphosphonium Salts as Cancer Cell Mitochondria-Targeted Vectors: Synthesis, Structure, and Biological Properties” (Molecules, 2021)
